Here are results for 23 compounds from US20100240630A1, “COMPOUNDS AND THERAPEUTIC USES THEREOF” (Myriad Pharmaceuticals, Inc.., priority 2007, published 2010).

pEC50: −log10 of the molar value.

The test relates to HIV-1 laboratory strain, NL4-3. As to the kind of experiment: MT-4 cytoprotection assay (WST-1 readout). The format is cell-based. The following applies: Human immunodeficiency virus 1, NL43, MT4, 96 h; MT-4 cells infected with HIV-1 NL4-3, MOI 0.0005, four days incubation; read-out: EC50, antiviral activity in the MT4 assay (most active compounds). Here is the method:
The compounds of the invention can be tested in the following MT-4 assay to detect antiviral activity.
The HTLV-1 transformed T cell line, MT-4, is highly susceptible to HIV-1 infection. Anti-HIV-1 agents were evaluated in this target cell line by protection from the HIV-induced cytopathic effect. In this assay, viability of both HIV-1 and mock-infected cells was assessed in a colorimetric assay that monitors the ability of metabolically-active cells to reduce the tetrazolium salt WST-1. Cytoprotection by antiviral compounds is indicated by the positive readout of increased WST-1 cleavage.
Briefly, exponentially growing MT-4 cells were mock-infected or batch-infected with the HIV-1 laboratory strain, NL4-3, at a multiplicity of infection of 0.0005. Following a two hour infection, the cells were washed to remove unbound virus and plated in the presence of increasing concentrations of compound. After four days incubation, cytoprotection in the infected cells and compound toxicity in mock-infected cells were analyzed using the WST-1 assay.
With `C=C(C)[C@@H]1CC[C@]2(C#Cc3ccccc3C(=O)O)CC[C@]3(C)C(CCC4[C@@]5(C)CC[C@H](OC(=O)CC(C)(C)C(=O)O)C(C)(C)C5CC[C@]43C)C12` (stereo partly drawn) [Compound 6, 2,2-Dimethyl-succinic acid 4-[(1R,5aR,5bR,9S,11aR)-3a-(2-carboxy-phenylethynyl)-1-isopropenyl-5a,5b,8,8,11a-pentamethyl-icosahydro-cyclopenta[a]chrysen-9-yl]ester], the pEC50 is ≥ 7.00. Then `C=C(C)[C@@H]1CC[C@]2(C#Cc3sccc3C(=O)O)CC[C@]3(C)C(CCC4[C@@]5(C)CC[C@H](OC(=O)CC(C)(C)C(=O)O)C(C)(C)C5CC[C@]43C)C12` (some centres unmarked) [Compound 9], with ≥ 7.00. Regarding `C=C(C)[C@@H]1CC[C@]2(C#Cc3ccsc3C(=O)O)CC[C@]3(C)C(CCC4[C@@]5(C)CC[C@H](OC(=O)CC(C)(C)C(=O)O)C(C)(C)C5CC[C@]43C)C12` (some centres unmarked) [Compound 11], the pEC50 is ≥ 7.00. Turning to `C=C(C)[C@@H]1CC[C@]2(C#Cc3cc(F)ccc3C(=O)O)CC[C@]3(C)C(CCC4[C@@]5(C)CC[C@H](OC(=O)CC(C)(C)C(=O)O)C(C)(C)C5CC[C@]43C)C12` (some centres unmarked) [Compound 13], the pEC50 is ≥ 7.00. `C=C(C)[C@@H]1CC[C@]2(C#Cc3ccsc3-c3nnn[nH]3)CC[C@]3(C)C(CCC4[C@@]5(C)CC[C@H](OC(=O)CC(C)(C)C(=O)O)C(C)(C)C5CC[C@]43C)C12` (some centres unmarked) [Compound 18]: the pEC50 was ≥ 7.00. Under `C=C(C)[C@@H]1CC[C@]2(C#Cc3cccc(F)c3C(=O)O)CC[C@]3(C)C(CCC4[C@@]5(C)CC[C@H](OC(=O)CC(C)(C)C(=O)O)C(C)(C)C5CC[C@]43C)C12` (some centres unmarked) [Compound 20] stands ≥ 7.00; under `C=C(C)[C@@H]1CC[C@]2(C#Cc3ccc(F)cc3C(=O)O)CC[C@]3(C)C(CCC4[C@@]5(C)CC[C@H](OC(=O)CC(C)(C)C(=O)O)C(C)(C)C5CC[C@]43C)C12` (some centres unmarked) [Compound 21], ≥ 7.00; under `C=C(C)[C@@H]1CC[C@]2(C#Cc3c(C)cccc3C(=O)O)CC[C@]3(C)C(CCC4[C@@]5(C)CC[C@H](OC(=O)CC(C)(C)C(=O)O)C(C)(C)C5CC[C@]43C)C12` (some centres unmarked) [Compound 22], ≥ 7.00. Then `C=C(C)[C@@H]1CC[C@]2(C#Cc3ccccc3C(N)=O)CC[C@]3(C)C(CCC4[C@@]5(C)CC[C@H](OC(=O)CC(C)(C)C(=O)O)C(C)(C)C5CC[C@]43C)C12` (some centres unmarked) [Compound 27], with ≥ 7.00; and `C=C(C)[C@@H]1CC[C@]2(CCc3ccccc3C(=O)O)CC[C@]3(C)C(CCC4[C@@]5(C)CC[C@H](OC(=O)CC(C)(C)C(=O)O)C(C)(C)C5CC[C@]43C)C12` (some centres unmarked) [Compound 28], with ≥ 7.00; and `C=C(C)[C@@H]1CC[C@]2(C#Cc3ccccc3C(=O)N(C)C)CC[C@]3(C)C(CCC4[C@@]5(C)CC[C@H](OC(=O)CC(C)(C)C(=O)O)C(C)(C)C5CC[C@]43C)C12` (some centres unmarked) [Compound 30], with ≥ 7.00. Turning to `C=C(C)[C@@H]1CC[C@]2(C#Cc3ccccc3S(C)(=O)=O)CC[C@]3(C)C(CCC4[C@@]5(C)CC[C@H](OC(=O)CC(C)(C)C(=O)O)C(C)(C)C5CC[C@]43C)C12` (some centres unmarked) [Compound 32], the pEC50 was ≥ 7.00. Take `C=C(C)[C@@H]1CC[C@]2(C#Cc3cc(Cl)ccc3C(=O)O)CC[C@]3(C)C(CCC4[C@@]5(C)CC[C@H](OC(=O)CC(C)(C)C(=O)O)C(C)(C)C5CC[C@]43C)C12` (some centres unmarked) [Compound 34]: the pEC50 is ≥ 7.00. Under `C=C(C)[C@@H]1CC[C@]2(C#Cc3ccc(Cl)cc3C(=O)O)CC[C@]3(C)C(CCC4[C@@]5(C)CCC(OC(=O)CC(C)(C)C(=O)O)C(C)(C)C5CC[C@]43C)C12` (some centres unmarked) [Compound 35] stands ≥ 7.00. Under `C=C(C)[C@@H]1CC[C@]2(C#Cc3cc(C)ccc3C(=O)O)CC[C@]3(C)C(CCC4[C@@]5(C)CC[C@H](OC(=O)CC(C)(C)C(=O)O)C(C)(C)C5CC[C@]43C)C12` (some centres unmarked) [Compound 36] stands ≥ 7.00; under `C=C(C)[C@@H]1CC[C@]2(C#CC3=C(C(=O)O)CCC3)CC[C@]3(C)C(CCC4[C@@]5(C)CC[C@H](OC(=O)CC(C)(C)C(=O)O)C(C)(C)C5CC[C@]43C)C12` (some centres unmarked) [Compound 41], ≥ 7.00. Then `C=C(C)[C@@H]1CC[C@]2(C#CC3=C(C(=O)O)CN(C(=O)OC(C)(C)C)CC3)CC[C@]3(C)C(CCC4[C@@]5(C)CC[C@H](OC(=O)CC(C)(C)C(=O)O)C(C)(C)C5CC[C@]43C)C12` (some centres unmarked) [Compound 42], with ≥ 7.00; and `C=C(C)[C@@H]1CC[C@]2(C#CC3=C(C(=O)O)CNCC3)CC[C@]3(C)C(CCC4[C@@]5(C)CC[C@H](OC(=O)CC(C)(C)C(=O)O)C(C)(C)C5CC[C@]43C)C12` (some centres unmarked) [Compound 43], with ≥ 7.00; and `C=C(C)[C@@H]1CC[C@]2(C#CC3=C(C(=O)O)CCCC3)CC[C@]3(C)C(CCC4[C@@]5(C)CC[C@H](OC(=O)CC(C)(C)C(=O)O)C(C)(C)C5CC[C@]43C)C12` (some centres unmarked) [Compound 45], with ≥ 7.00. For `C=C(C)[C@@H]1CC[C@]2(C#Cc3ccc(OC)c(OC)c3C(=O)O)CC[C@]3(C)C(CCC4[C@@]5(C)CC[C@H](OC(=O)CC(C)(C)C(=O)O)C(C)(C)C5CC[C@]43C)C12` (some centres unmarked) [Compound 50], the pEC50 is ≥ 7.00. In the case of `C=C(C)[C@@H]1CC[C@]2(C#Cc3cccc(Cl)c3C(=O)O)CC[C@]3(C)C(CCC4[C@@]5(C)CC[C@H](OC(=O)CC(C)(C)C(=O)O)C(C)(C)C5CC[C@]43C)C12` (some centres unmarked) [Compound 51], the pEC50 is ≥ 7.00. Under `C=C(C)[C@@H]1CC[C@]2(C#Cc3ccncc3C(=O)O)CC[C@]3(C)C(CCC4[C@@]5(C)CC[C@H](OC(=O)CC(C)(C)C(=O)O)C(C)(C)C5CC[C@]43C)C12` (some centres unmarked) [Compound 54] stands ≥ 7.00; under `C=C(C)[C@@H]1CC[C@]2(C#Cc3ccccc3C(=O)NS(C)(=O)=O)CC[C@]3(C)C(CCC4[C@@]5(C)CC[C@H](OC(=O)CC(C)(C)C(=O)O)C(C)(C)C5CC[C@]43C)C12` (some centres unmarked) [Compound 55], ≥ 7.00.

By pEC50 is commonly meant the negative decadic logarithm of the EC50, by convention in mol/L.
